Measurements published in patent publication US8785452B2, “Anti-infective compounds” (priority 2008, dated 2014).

Tested on: M. tuberculosis clinical isolates
Type: cell-based, Mycobacterium tuberculosis
Conditions: multi-drug-resistant and extensive-drug-resistant isolates

Cc1cccn2c(=O)c(C=O)c(Nc3cccc(Cl)c3)nc12 [compound 133, 2-(3-Chlorophenylamino)-9-methyl-4-oxo-4H-pyrido[1,2-a]pyrimidine-3-carbaldehyde]
activity (MIC values) against MDR and XDR clinical isolates, in words: within the micromolar range
